Usually inhibition stands for how much of the control response was suppressed.

In assay [1] the test system is human gel-filtered platelet suspension. The assay is described as follows: Inhibition of AA-induced platelet aggregation. To be noted: human gel-filtered platelet suspension containing 0.2% albumin. Type of assay: cell-based. The source says: (§1) Biological studies to define the profiles of these compounds reveal interesting and selective properties including, in vitro inhibition of SRS-A biosynthesis, 5-lipoxygenase inhibition, phospholiphase A2 inhibition and antithrombotic activity.

The target in another assay is T1, 5-lipoxygenase (Rattus norvegicus, UniProt P12527).
T1 construct: super natant from RBL-1 cells; endogenous in cells; host or cells: RBL-1 cells (supernatant)
T1 sequence (P12527 1-673): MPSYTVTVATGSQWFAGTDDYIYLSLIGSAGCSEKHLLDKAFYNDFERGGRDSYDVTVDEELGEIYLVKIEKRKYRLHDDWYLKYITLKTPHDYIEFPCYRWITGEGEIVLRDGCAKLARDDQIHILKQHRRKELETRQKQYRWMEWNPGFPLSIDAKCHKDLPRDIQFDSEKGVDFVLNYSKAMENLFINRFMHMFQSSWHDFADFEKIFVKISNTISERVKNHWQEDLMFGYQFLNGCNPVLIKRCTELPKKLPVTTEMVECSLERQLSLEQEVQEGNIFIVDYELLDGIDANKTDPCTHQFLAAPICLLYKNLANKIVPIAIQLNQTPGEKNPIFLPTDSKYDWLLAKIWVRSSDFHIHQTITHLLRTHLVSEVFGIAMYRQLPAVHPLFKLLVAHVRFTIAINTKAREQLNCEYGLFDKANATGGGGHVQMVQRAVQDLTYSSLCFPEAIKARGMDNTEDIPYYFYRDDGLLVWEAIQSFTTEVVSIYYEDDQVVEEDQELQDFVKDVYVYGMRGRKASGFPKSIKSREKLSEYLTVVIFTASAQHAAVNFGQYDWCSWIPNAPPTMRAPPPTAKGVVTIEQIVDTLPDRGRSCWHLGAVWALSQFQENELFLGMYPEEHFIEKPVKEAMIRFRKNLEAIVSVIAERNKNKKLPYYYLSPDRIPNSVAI
The assay is described as follows: Inhibition of conversion of 14C-AA to 14C-5-HETE in supernatant from RBL-1 cells. The format is biochemical.
Text: as §1

`CCCCC/C=C\C/C=C\C/C=C\C1(/C=C\CCCC(=O)O)CC1` [compound 1] registered an inhibition at 80 µM in assay [1] of 50%. This compound also returned an inhibition at 100 µM against 5-lipoxygenase of 86%.

The values above are taken from patent publication US4759880A, “Alkanoarachidonic acids” (Research Corporation, priority 1984, dated 1988).
